The term AUC(0-inf) denotes the area under the concentration-time curve extrapolated to infinity. A word on the AUC(0-t): it is the area under the concentration-time curve up to a stated or last time point. In general, Tmax refers to the time at which the peak concentration occurs. For orientation: half-life means the time in which the quantity being followed falls by half. Broadly, the CL/F is clearance divided by bioavailability, as obtained after extravascular dosing. Usually Cmax stands for the maximum level reached in the sampled fluid or tissue.

This is an account of results in PMC11361584 (PLOS ONE, 2024).

SMILES strings stand for the structures. Like-named read-outs stand apart in the source and are kept apart here.

Data set [1] in a line: Pharmacokinetics of omeprazole 40 mg alone and co-administered with levosulpiride 50 mg in healthy human volunteers (Phase-2). It counts as in vivo. Here is the method: (§1) The developed method was applied for evaluation of pharmacokinetics drug-drug interaction between LSP and OMP in healthy human volunteers (n = 20). Both the drugs were administered to the healthy volunteers, their blood samples were collected at specified time points and analyzed for the drug content, using the developed method. Written consent form was signed by all the volunteers and purpose of the study was explained to them. They were physically examined and medical history was recorded. Age of the volunteers was 20–28 years, with mean body mass index (BMI) of […]. Complete blood count, creatinine clearance, and liver function tests of all the healthy human volunteers were performed. All the volunteers were non-smokers and had no history of addiction. They were instructed not to take any medicines for two weeks before the study.
(§2) The study was conducted according to the “World Medical Association Declaration of Helsinki-Ethical principles of medical research involving human subjects” and its amendments. This study was approved by the ethical committee, Department of Pharmacy, University of Swabi, KP, Pakistan (Application number F.NO.UOS/2022/Pharm.02). It was an open-label, randomized, crossover, pharmacokinetic interaction study. The volunteers were divided into two groups of same size (n = 10) and the trial was conducted in two phases and two sequences, as follows;
Phase-2 of the study was started after one month of the completion of Phase-1, as follows;
• Group-I: LSP 50 mg was given for 6 days twice a day and on the 7th day single dose of OMP 40 mg was administered • Group-II: OMP 40 mg was administered alone.
The blood was sampled at 0, 0.25, 0.5, 1, 2, 3, 4, 6, 8, and 12 hours.
After 14 days washout period, the pattern of drug administration was reversed as follows;
• Group-I: OMP 40 mg was administered alone. • Group-II: LSP 50 mg was given for 6 days twice a day and on the 7th day single dose of OMP 40 mg was administered
(§3) The pharmacokinetic parameters were determined using non-compartmental analysis using PK-Summit (version 2.0.2). The plasma concentration of the drug (ng/mL) versus time (hour) profile was constructed for both drugs when administered alone and in combination with each another. The pharmacokinetic parameters like peak plasma concentration (Cmax), time to reach peak plasma concentration (Tmax), area under the concentration-time curve from zero time to time-t (AUC0-t) i.e. AUC0-36 for LSP and AUC0-12 for OMP, area under the concentration-time curve from zero time to infinity (AUC0-∞), elimination half-life (t1/2) and clearance (CL) were determined.
(§4) All the analysis was performed as per ICH guidelines using mean, standard deviation, and relative standard deviation. In the pharmacokinetic studies, the parameter values were compared using a t-test. The P-value (t-test) was calculated using the IBM SPPS statistics version 20. A p < 0.05 (95% confidence interval) was considered to be significant.

A short description of data set [2]: Stability of spiked human plasma samples at LQC and HQC at different temperatures. It counts as in vitro ADME. As to conditions: plasma sample. The method, then: For preparation of plasma samples, blood was collected from human volunteer and centrifuged to separate the cellular components. Plasma was de-proteinated with acetonitrile (two times volume of plasma) and was used for spiking the analytes. A liquid-liquid extraction method, reported by Jin et al., [18], with slight modification was used for extraction of LSP and OMP. Known amount of LSP, OMP and IS were added to plasma (1 mL), and vortexed for 30 sec. 4 ml of extraction solvent (mixture of ethyl acetate and dichloromethane in 4:1 by volume) was added, vortexed for 2 min and centrifuged at 3000 × g for 10 min. The supernatant (organic) layer was separated and dried under a gentle stream of nitrogen gas. The dried residue was reconstituted with 0.2 mL of mobile phase and an aliquot (20 μL) was injected into the HPLC system. Blank and zero samples were also treated in the same manner.
The stability of the samples was also evaluated at the level of LQC and HQC of both the analytes. The LQC were 10 and 30 ng/mL while the HQC were 120 and 1200 ng/mL for LSP and OMP, respectively. […] The sample stored at –20 °C involved freeze-thawed cycles at a gap of 12 hours between the two-consecutive freeze-thawed cycles.
The stability of the samples was evaluated for short term and relatively long term (one month). […] The % recovery was calculated by comparing the % recovery (concentration recovered) with freshly prepared spiked samples.

Details of data set [3]: method as in PMID 12236477. The conditions noted are these: metabolites of omeprazole; cited from earlier work.
Data set [4] can be described thus: Pharmacokinetics of levosulpiride 50 mg alone and co-administered with omeprazole 40 mg in healthy human volunteers (Phase-1). It counts as in vivo. As to conditions: for AUC(0-inf) / AUC(0-t) / Cmax / Tmax / half-life: human, plasma, oral; for CL/F: healthy human volunteers (n = 20), mean ± SD. The method, then: as §1, §2
Phase-1: First phase of the study consisted of two cycles with a wash out period of 14 days. During first phase of the study;
• Group-I: OMP 40 mg was administered twice a day for 6 days, and on the 7th day a single dose of LSP 50 mg was administered • Group-II: LSP 50 mg was administered alone as a single dose
Blood samples (3 mL) were collected at 0, 0.25, 0.5, 1, 2, 3, 4, 6, 8, 12, 24 and 36 hours. After 14 days washout period;
• Group-I: LSP 50 mg was administered alone • Group-II: OMP 40 mg, was administered twice a day for 6 days, on the 7th day LSP 50 mg was administered
as §3, §4

For data set [5] the following is noted: cited from earlier work.
Where [6] appears, read: plasma, oral, omeprazole 40 mg alone, healthy human volunteers (n = 20), mean ± SD.
Setting [7] is: levosulpiride with omeprazole versus alone, not significant.

With `COc1ccc2[nH]c([S+]([O-])Cc3ncc(C)c(OC)c3C)nc2c1` (stereo not shown) [Omeprazole], the AUC(0-inf) is 6490 ± 1610 ng·h/mL in data set [1] (human, plasma, oral) and 6650 ± 1650 ng·h/mL in data set [1] (setting [6]). In addition, the AUC(0-t) in data set [1] (human, plasma, oral) was 5950 ± 1430 ng·h/mL; in data set [1] (plasma, oral, omeprazole 40 mg alone, AUC0-12, healthy human volunteers (n = 20), mean ± SD), 6090 ± 1480 ng·h/mL. In addition, the Tmax in data set [1] (human, plasma, oral) came out at 1.85 ± 0.83 h; in data set [1] (setting [6]) it was 1.95 ± 0.99 h. In addition, the half-life in data set [1] (human, plasma, oral) is 2.23 ± 1.03 h; in data set [1] (setting [6]), 2.3 ± 0.94 h. Besides, the CL/F stood at 7118.71 ± 2407.41 mL/h in data set [1] (omeprazole 40 mg alone, healthy human volunteers (n = 20), mean ± SD) and 7100.69 ± 2001.55 mL/h in data set [1] (omeprazole 40 mg with levosulpiride 50 mg, healthy human volunteers (n = 20), mean ± SD). In data set [1] (plasma, oral, omeprazole 40 mg single dose administered alone, healthy human volunteers (n = 20), mean ± SD), the Cmax was determined as 1140 ± 262 ng/mL. Also, the “% recovery (mean)” value in data set [2] (High QC (1200 ng/ml), 15 °C for 12 hours (autosampler temperature)) amounted to 99.31%; in data set [2] (High QC (1200 ng/ml), -20 °C for 24 hours) it was 99.48%; in data set [2] (High QC (1200 ng/ml), -20°C for one month, three freezed cycles) it was 98.80%; in data set [2] (High QC (1200 ng/ml), RT for 24 hours), 98.35%; in data set [2] (Low QC (30 ng/ml), 15 °C for 12 hours (autosampler temperature)), 98.66%; in data set [2] (Low QC (30 ng/ml), -20 °C for 24 hours), 99.33%. The “% recovery (mean)” value in data set [2] (Low QC (30 ng/ml), -20°C for one month, three freezed cycles) is reported as 98.73%; in data set [2] (Low QC (30 ng/ml), RT for 24 hours), 96.11%.

As to `COc1ccc2nc([S+]([O-])Cc3ncc(CO)c(OC)c3C)[nH]c2c1` (stereo not shown) [5-hydroxy omeprazole], the pharmacological activity result in data set [3] is “pharmacologically inactive”.

Consider `CCN1CCC[C@H]1CNC(=O)c1cc(S(N)(=O)=O)ccc1OC` [Levosulpiride], for which the AUC(0-inf) in data set [4] came out at 2210 ± 577 ng·h/mL; in data set [4] (50 mg), 1870 ± 627 ng·h/mL. The values for the AUC(0-t) in data set [4] and in data set [4] (50 mg) were 1770 ± 482 ng·h/mL and 1540 ± 473 ng·h/mL, respectively. Moreover, the Cmax in data set [4] amounted to 118 ± 26.3 ng/mL; in data set [4] (50 mg), 109 ± 24.9 ng/mL. In addition, the Tmax in data set [4] is 3.71 ± 0.75 h; in data set [4] (50 mg), 3.8 ± 1.05 h. In addition, the half-life in data set [4] was 12.7 ± 4.76 h; in data set [4] (50 mg), 13.3 ± 2.64 h. The CL/F in data set [4] (levosulpiride 50 mg alone) worked out at 35832 ± 8402 mL/h; in data set [4] (levosulpiride 50 mg with omeprazole 40 mg), 30333 ± 6326 mL/h. Also, the “increase of AUC0-t” value in data set [4] (setting [7]) is 14.52%. Besides, in data set [4] (setting [7]), the “increase of AUC0-∞” value is 18.36%. Moreover, the “increase of Cmax” value in data set [4] (setting [7]) is listed as 8.79%. Besides, the “reduction of CL” value in data set [4] (setting [7]) is reported as 15.34%. Further, the “% recovery (mean)” value in data set [2] (High QC (120 ng/ml), 15 °C for 12 hours (autosampler temperature)) is listed as 99.67%; in data set [2] (High QC (120 ng/ml), -20 °C for 24 hours), 99.17%; in data set [2] (High QC (120 ng/ml), -20°C for one month, three freezed cycles) it was 98.33%; in data set [2] (High QC (120 ng/ml), RT for 24 hours) it was 98.00%; in data set [2] (Low QC (10ng/ml), 15 °C for 12 hours (autosampler temperature)), 98.36%; in data set [2] (Low QC (10ng/ml), -20 °C for 24 hours), 98.75%. In addition, the “% recovery (mean)” value stood at 96.90% in data set [2] (Low QC (10ng/ml), -20°C for one month, three freezed cycles) and 96.80% in data set [2] (Low QC (10ng/ml), RT for 24 hours). In addition, the elimination half-life in data set [5] (depending upon route of administration, dosage form and dose) is 6 to 19 h; in data set [5] (orally administered LSP 25 mg) it was 12.0 h; in data set [5] (orally administered LSP 50 mg), 12.6 h; in data set [5] (orally administered LSP 100 mg), 14.3 h.

On to `COc1ccc2nc(S(=O)(=O)Cc3ncc(C)c(OC)c3C)[nH]c2c1` [omeprazole sulfone], for which, in data set [3], the pharmacological activity result is “pharmacologically inactive”.
